From ChEMBL document CHEMBL1146330, “Acyclic, orally bioavailable ketone-based cathepsin K inhibitors” (Bioorg Med Chem Lett, 2007)
pIC50: −log10 of the molar value. In brackets after ≈: the same amount, converted by molar mass.

What was measured:
[1] = Solubility in fasted state simulated intestinal fluid at pH 6.8; format: physicochemical
Cathepsin S = Cathepsin S (Homo sapiens, UniProt P25774); test: Inhibition of human recombinant cathepsin S
[2] = Inhibition of human recombinant cathepsin L
[3] = Oral bioavailability in Han Wistar rat; format: ADME, organism-based; settings: in vivo
[4] = Terminal elimination half life in iv dosed Han Wistar rat; format: ADME, organism-based; settings: in vivo
Cathepsin K = molecular target: T1, Cathepsin K (Homo sapiens, UniProt P43235); test: Inhibition of human recombinant cathepsin K
T1 sequence (P43235 whole entry): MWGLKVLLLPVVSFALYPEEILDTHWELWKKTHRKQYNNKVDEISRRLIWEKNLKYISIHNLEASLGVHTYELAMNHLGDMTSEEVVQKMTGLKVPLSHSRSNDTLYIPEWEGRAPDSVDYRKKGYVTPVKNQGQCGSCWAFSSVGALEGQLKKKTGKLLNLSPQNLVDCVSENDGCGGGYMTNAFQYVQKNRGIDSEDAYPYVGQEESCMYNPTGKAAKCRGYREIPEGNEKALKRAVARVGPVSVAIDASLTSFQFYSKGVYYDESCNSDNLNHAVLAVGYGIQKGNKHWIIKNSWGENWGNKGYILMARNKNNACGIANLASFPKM

[5] = Volume of distribution at steady state in Han Wistar rat; format: ADME, organism-based; settings: in vivo, read-out: Vdss
[6] = Apparent permeability across MDCK cells; format: ADME, cell-based, Canis lupus familiaris; settings: dog
Cathepsin B = Cathepsin B (Homo sapiens, UniProt P07858); test: Inhibition of human recombinant cathepsin B
Homo sapiens = organism: Homo sapiens; test: Selectivity for human recombinant cathepsin K over human recombinant cathepsin L
[7] = Total clearance in Han Wistar rat; format: ADME, organism-based; settings: in vivo

Cathepsin S, sequence (P25774 whole entry): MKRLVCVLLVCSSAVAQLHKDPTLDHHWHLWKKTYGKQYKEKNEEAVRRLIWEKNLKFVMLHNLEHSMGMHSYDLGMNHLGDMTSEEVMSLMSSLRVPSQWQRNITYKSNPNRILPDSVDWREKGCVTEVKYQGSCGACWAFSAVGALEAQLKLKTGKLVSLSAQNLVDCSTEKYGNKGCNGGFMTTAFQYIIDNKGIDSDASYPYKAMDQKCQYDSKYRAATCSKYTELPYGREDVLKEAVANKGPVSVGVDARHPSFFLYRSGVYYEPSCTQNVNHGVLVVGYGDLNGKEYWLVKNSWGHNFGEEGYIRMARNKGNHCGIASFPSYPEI

Row | Structure (SMILES) | solubility [1] | pIC50 (Cathepsin S) | pIC50 [2] | bioavailability [3] | half-life [4] | pIC50 (Cathepsin K) | Vd [5] | Papp [6] | pIC50 (Cathepsin B) | Ratio IC50 (Homo sapiens) | clearance [7]
1 | CCCC[C@H](NC(=O)O[C@H](Cn1ccc(-c2ccc(C(F)(F)F)cc2)n1)C(C)(C)C)C(=O)C(=O)Nc1ccn[nH]1 | 110 µg/mL (≈ 196 µM) | 9.68 | 8.06 | 42% | 320 min | 10.14 | 1.6 L/kg | 9.1 ×10⁻⁶ cm/s | 7.70 |  | 
2 | CC(C)(C)[C@@H](Cn1ccc(-c2ccc(C(F)(F)F)cc2)n1)OC(=O)NCC(=O)CNS(=O)(=O)c1ccccn1 |  |  |  |  |  | 7.19 |  |  |  |  | 
3 | CCCC[C@H](NC(=O)O[C@H](Cn1cc(-c2ccc(C(F)(F)F)cc2)cn1)C(C)(C)C)C(=O)CNS(=O)(=O)c1ccccn1 |  | 7.59 | 5.15 |  |  | 8.12 |  |  | 7.14 | > 100 | 
4 | C[C@H](NC(=O)O[C@H](Cn1ccc(C(F)(F)F)n1)C(C)(C)C)C(=O)CNS(=O)(=O)c1ccccn1 |  |  |  |  |  | 6.52 |  |  |  |  | 
5 | CCCC[C@H](NC(=O)O[C@H](Cn1ccc(-c2cccnc2)n1)C(C)(C)C)C(=O)CNS(=O)(=O)c1ccccn1 |  | 7.82 | 7.00 |  |  | 8.26 |  |  | 7.10 |  | 
6 | C[C@H](NC(=O)O[C@H](Cn1cnc2cc(Cl)c(Cl)cc21)C(C)(C)C)C(=O)CNS(=O)(=O)c1ccccn1 |  | 8.10 | 7.42 |  |  | 8.85 |  |  | 7.15 |  | 
7 | CCCC[C@H](NC(=O)O[C@H](Cn1ccc(-c2ccncc2)n1)C(C)(C)C)C(=O)CNS(=O)(=O)c1ccccn1 | 60 µg/mL (≈ 108 µM) | 7.96 | 7.42 | 100% | 120 min | 8.42 | 1.7 L/kg | 6.8 ×10⁻⁶ cm/s | 7.89 |  | 16 mL/min/kg
8 | CCCC[C@H](NC(=O)O[C@H](Cn1ccc(C(F)(F)F)n1)C(C)(C)C)C(=O)CNS(=O)(=O)c1ccccn1 |  |  |  | 20% | 24 min | 7.49 | 0.46 L/kg | 34 ×10⁻⁶ cm/s |  |  | 21 mL/min/kg
9 | C[C@H](NC(=O)O[C@H](Cn1ccc(-c2ccc(C(F)(F)F)cc2)n1)C(C)(C)C)C(=O)CNS(=O)(=O)c1ccccn1 | 97 µg/mL (≈ 167 µM) | 7.19 | < 6.60 | 27% | 32 min | 7.74 | 1.8 L/kg | 30 ×10⁻⁶ cm/s | 6.51 |  | 82 mL/min/kg
10 | CCCC[C@H](NC(=O)O[C@H](Cn1cnc(-c2ccc(C(F)(F)F)cc2)c1)C(C)(C)C)C(=O)CNS(=O)(=O)c1ccccn1 | 40 µg/mL (≈ 64.1 µM) | 8.00 | 5.96 | 22% | 67 min | 8.19 | 1.6 L/kg | 19 ×10⁻⁶ cm/s | 6.89 | > 100 | 47 mL/min/kg
11 | CC(C)C[C@H](NC(=O)c1cc2ccccc2o1)C(=O)N[C@@H](C)C(=O)CNS(=O)(=O)c1ccccn1 |  | 7.70 |  |  | 33 min | 8.12 |  |  | 7.23 |  | 
12 | CCCC[C@H](NC(=O)O[C@H](Cn1cnc2cc(Cl)c(Cl)cc21)C(C)(C)C)C(=O)CNS(=O)(=O)c1ccccn1 | 28 µg/mL (≈ 46.8 µM) | 8.00 | 7.80 | 32% | 46 min | 8.49 | 1.3 L/kg | 15 ×10⁻⁶ cm/s | 7.40 |  | 31 mL/min/kg
13 | CCCC[C@H](NC(=O)O[C@H](Cn1ccc(-c2ccc(C(F)(F)F)cc2)n1)C(C)(C)C)C(=O)CNS(=O)(=O)c1ccccn1 | 41 µg/mL (≈ 65.7 µM) | 7.46 | < 6.60 | 21% | 120 min | 8.40 | 1.8 L/kg | 16 ×10⁻⁶ cm/s | 6.77 |  | 26 mL/min/kg
14 | CCCC[C@H](NC(=O)O[C@H](Cn1ccc(-c2ccc(C(F)(F)F)cc2)n1)C(C)(C)C)C(=O)CNC(=O)N1CCOCC1 |  |  |  |  |  | < 6.60 |  |  |  |  | 
15 | CCCC[C@H](NC(=O)O[C@H](Cn1ccc(-c2ccc(C(F)(F)F)cc2)n1)C(C)(C)C)C(=O)CNc1cccc(F)n1 |  | 7.72 | < 6.60 |  |  | 8.68 |  |  | 7.17 | > 100 | 
